In ChEMBL document CHEMBL3244320, “2-Acetylpyridine thiosemicarbazones. 1. A new class of potential antimalarial agents” (J Med Chem, 1979):

How the values were obtained:
Type in all cases: functional
Settings in all cases: route subcutaneous
[1] = test system: Plasmodium berghei; assay: Antimalarial activity against Plasmodium berghei KBG 173 infected in ICR/HA Swiss mouse assessed as increase in mean survival time at 320 mg/kg, sc administered 72 hrs post infection
[2] = test system: Plasmodium berghei; assay: Antimalarial activity against Plasmodium berghei KBG 173 infected in ICR/HA Swiss mouse assessed as increase in mean survival time at 80 mg/kg, sc administered 72 hrs post infection
[3] = test system: Plasmodium berghei; assay: Antimalarial activity against Plasmodium berghei KBG 173 infected in ICR/HA Swiss mouse assessed as increase in mean survival time at 160 mg/kg, sc administered 72 hrs post infection
[4] = test system: Plasmodium berghei; assay: Antimalarial activity against Plasmodium berghei KBG 173 infected in ICR/HA Swiss mouse assessed as increase in mean survival time at 640 mg/kg, sc administered 72 hrs post infection
[5] = test system: Plasmodium berghei; assay: Antimalarial activity against Plasmodium berghei KBG 173 infected in ICR/HA Swiss mouse assessed as increase in mean survival time at 40 mg/kg, sc administered 72 hrs post infection

Compound | MST [1] [days] | MST [2] [days] | MST [3] [days] | MST [4] [days] | MST [5] [days]
C/C(=N\NC(=S)NCc1ccc(C)cc1C)c1ccccn1 | 6.1 | 0.1 | 3.1 | 8.9 | 0.5
C/C(=N\NC(=S)Nc1ccc(S(=O)(=O)c2ccc(NC(=S)N/N=C(\C)c3ccccn3)cc2)cc1)c1ccccn1 |  |  | 0.1 | 0.3 | 0.1
C/C(=N\NC(=S)NCc1cccc(C)c1)c1ccccn1 |  |  | 0.7 | 6.5 | 0.3
C/C(=N\NC(=S)Nc1ccccc1[N+](=O)[O-])c1ccccn1 | 5.7 | 0.1 | 0.9 | 4.5 | 0.1
C/C(=N\NC(=S)NC12CC3CC(CC(C3)C1)C2)c1ccccn1 | 8.5 | 1.1 | 3.7 | 9.2 | 0.7
C/C(=N\NC(=S)NCc1ccccn1)c1ccccn1 |  |  | 0.3 | 0.9 | 0.1
COc1ccc(NC(=S)N/N=C(\C)c2ccccn2)nn1 |  |  | 0.1 | 0.2 | 0.1
CC/C(=N\NC(=S)Nc1ccc(Cl)cc1)c1ccccn1 |  |  | 0.7 | 1.1 | 0.3
C/C(=N\NC(=S)Nc1cccc(Br)c1)c1ccccn1 |  |  | 0.3 | 0.9 | 0.1
CC/C(=N\NC(=S)Nc1ccc(Br)cc1)c1ccccn1 |  |  | 0.3 | 0.7 | 0.3
CCc1ccccc1NC(=S)N/N=C(\C)c1ccccn1 | 3.1 | 0.3 | 0.7 | 5.1 | 0.3
C/C(=N\NC(=S)NC(C)c1ccc(F)cc1)c1ccccn1 (stereo not given) | 5.2 | 5.5 | 8.5 |  | 1.1
COc1ccc(CNC(=S)N/N=C(\C)c2ccccn2)cc1 | 5.9 | 1.7 | 2.9 | 7.9 | 0.3
C/C(=N\NC(=S)Nc1c2ccccc2nc2ccccc12)c1ccccn1 |  |  | 0.3 | 0.5 | 0.3
CCOC(=O)CNC(=S)N/N=C(\C)c1ccccn1 |  |  | 0.1 | 0.3 | 0.1
C/C(=N\NC(=S)NCc1cccnc1)c1ccccn1 |  |  | 0.3 | 0.6 | 0.1
C/C(=N\NC(=S)Nc1ccc(F)cc1)c1ccccn1 | 7.7 | 3.7 | 3.9 |  | 1.3
C/C(=N\NC(=S)Nc1cc(Cl)c(Cl)cc1Cl)c1ccccn1 |  |  | 0.1 | -0.1 | -0.3
C/C(=N\NC(=S)Nc1ccc(Cl)cc1Cl)c1ccccn1 |  |  | 0.3 | 0.7 | -0.1
C/C(=N\NC(=S)NC(c1ccccc1)(c1ccccc1)c1ccccc1)c1ccccn1 |  |  | 0.1 | 0.1 | 0.1
C/C(=N\NC(=S)Nc1cccnc1)c1ccccn1 |  |  | 0.5 | 1.3 | 0.3

Compound | MST [1] [days] | MST [2] [days] | MST [3] [days] | MST [4] [days] | MST [5] [days]
C/C(=N\NC(=S)Nc1c(C)cccc1C)c1ccccn1 | 5.8 | 0.4 | 2 | 11.4 | 0.4
COc1ccccc1CNC(=S)N/N=C(\C)c1ccccn1 | 3.5 | 0.3 | 1.3 | 6.9 | 0.1
C/C(=N\NC(=S)Nc1ccccc1Br)c1ccccn1 |  |  | 0.5 | 0.9 | 0.1
C/C(=N\NC(=S)Nc1ccc(Cl)c(Cl)c1Cl)c1ccccn1 |  |  | 0.1 | -0.3 | 0.1
C/C(=N\NC(=S)N1CC1)c1ccccn1 |  |  | 0.1 | 0.1 | 0.1
C/C(=N\NC(=S)Nc1cccc([N+](=O)[O-])c1)c1ccccn1 |  |  | -0.3 | -0.1 | 0.1
CCOC(=O)CNC(=S)N/N=C(\CC)c1ccccn1 |  |  | 0.3 | 0.5 | 0.3
CC/C(=N\NC(=S)Nc1ccccc1)c1ccccn1 |  | 1.2 | 2.6 |  | 0
C/C(=N\NC(=S)Nc1ccccc1C)c1ccccn1 | 5.1 | 0.5 | 0.9 | 9.9 | 0.1
C/C(=N\NC(=S)Nc1ccccn1)c1ccccn1 | 6.5 | 2.7 | 4.5 | 8.1 | 1.5
CCOC(=O)c1ccc(NC(=S)N/N=C(\C)c2ccccn2)cc1 |  |  | 0.3 | 0.6 | 0.3
CCOC(=O)c1ccc(NC(=S)N/N=C(\CC)c2ccccn2)cc1 |  |  | 0.5 | 0.5 | 0.3
CCc1ccc(NC(=S)N/N=C(\C)c2ccccn2)cc1 | 3.1 | 1.5 | 2.1 | 5.7 | 0.3
COc1cccc(CNC(=S)N/N=C(\C)c2ccccn2)c1 | 4.5 | 0.3 | 0.9 | 5.9 | 0.3
C/C(=N\NC(=S)NCc1ccccc1Cl)c1ccccn1 |  |  | 0.3 | 1.9 | 0.3
CC/C(=N\NC(=S)NC(c1ccccc1)(c1ccccc1)c1ccccc1)c1ccccn1 |  |  | 0.1 | 0.3 | 0.1
CCCCc1ccc(NC(=S)N/N=C(\C)c2ccccn2)cc1 |  |  | 3.9 | 9.9 | 0.3
COc1cc(NC(=S)N/N=C(\C)c2ccccn2)c2nccc(C)c2c1 |  |  | 0.1 | 0.3 | 0.1
C/C(=N\NC(=S)Nc1cc(Cl)ccc1Cl)c1ccccn1 |  |  | 0.1 | 0.1 | -0.1
C/C(=N\NC(=S)Nc1cccc(Cl)c1Cl)c1ccccn1 |  |  | 0.2 | 0.6 | -0.2
C/C(=N\NC(=S)NCc1ccc(C)cc1)c1ccccn1 | 5.7 | 1.7 | 4.3 |  | 0.1

Compound | MST [1] [days] | MST [2] [days] | MST [3] [days] | MST [4] [days] | MST [5] [days]
C/C(=N\NC(=S)NCc1ccncc1)c1ccccn1 |  |  | 0.4 | 0 | 0.3
C/C(=N\NC(=S)Nc1c(Cl)cccc1Cl)c1ccccn1 |  |  | 0.9 | 0.1 | 0.1
C/C(=N\NC(=S)NCc1ccc(Cl)cc1Cl)c1ccccn1 |  |  | 1 | 2 | 0.4
C/C(=N\N=C(/S)NCc1ccccc1)c1ccccn1 |  |  | 3.7 | 10.6 | 0.5
C/C(=N\NC(=S)Nc1ccc(O)cc1)c1ccccn1 |  |  | 0.3 | 0.6 | 0.1
CC/C(=N\NC(=S)Nc1cccc(Cl)c1)c1ccccn1 |  |  | 0.3 | 0.5 | 0.3
CC/C(=N\NC(=S)Nc1ccc([N+](=O)[O-])cc1)c1ccccn1 |  |  | 0.1 | 0.3 | 0.1
C/C(=N\NC(=S)Nc1ccc(Cl)c(Cl)c1)c1ccccn1 |  |  | 0.5 | 0.5 | 0.5
C/C(=N\NC(=S)Nc1ccncc1)c1ccccn1 |  |  | 0.3 | 0.9 | 0.1
C/C(=N\NC(=S)NCc1ccc(C)c(C)c1)c1ccccn1 |  |  | 0.1 | 2.1 | 0.3
COc1ccc(NC(=S)N/N=C(\C)c2ccccn2)cc1 |  |  | 9.7 | 1.7 | 2.1
C/C(=N\NC(=S)Nc1ccc([N+](=O)[O-])cc1)c1ccccn1 |  |  | 0.1 | 0.5 | 0.1
C/C(=N\NC(=S)NCc1ccc(Cl)c(Cl)c1)c1ccccn1 |  |  | 0.5 | 0.1 | 0.1
C/C(=N\NC(=S)Nc1cc(Cl)cc(Cl)c1)c1ccccn1 |  |  | -0.2 | 0 | -0.2
CC/C(=N\NC(=S)Nc1ccccc1Cl)c1ccccn1 |  |  | 0.1 | 0.3 | 0.1
C/C(=N\NC(=S)Nc1ccc(Br)cc1)c1ccccn1 |  |  | 0.3 | 0.5 | 0.3
C/C(=N\NC(=S)NCc1cccc(Cl)c1)c1ccccn1 | 0 | 0 | 1.6 | -0.4 | 
C/C(=N\NC(=S)Nc1ccccc1)c1ccccn1 |  | 4.7 | 11.1 |  | 3.1
CC/C(=N\NC(=S)NC12CC3CC(CC(C3)C1)C2)c1ccccn1 | 6.3 | 0.3 | 3.7 | 9.1 | 
